The values below are quoted from earlier work in patent publication US11890366B2, “Method for dyeing keratin material, comprising the use of an organic C1-C6 alkoxy silane and a copolymer of styrene and maleic acid (anhydride)” (Henkel AG & Co. KGaA, priority 2019, dated 2024).

For `CCN(Cc1cccc(S(=O)(=O)[O-])c1)c1ccc(C(=C2C=CC(=[N+](CC)Cc3cccc(S(=O)(=O)[O-])c3)C=C2)c2ccccc2S(=O)(=O)[O-])cc1.[Na+].[Na+]` [Acid Blue 9], under “25° C.”, the water solubility result was “greater than 20 % by weight”. With `O=S(=O)([O-])c1ccc(N=Nc2c(O)ccc3ccccc23)cc1.[Na+]` [Acid Orange 7, sodium salt of 4-[(2-hydroxy-1-naphthyl)azo]benzenesulfonate], under “25° C.”, the solubility in water entry was “more than 7 g/L”. Regarding `Nc1cc(S(=O)(=O)[O-])cc2cc(S(=O)(=O)[O-])c(N=Nc3ccccc3)c(O)c12.[Na+].[Na+]` [Acid Red 33, dinatrium salt of 5-amino-4-hydroxy-3-(phenylazo)-naphthalene-2,7-disulphonate], where the note is “25° C.”, the solubility in water is 2500 µg/mL. On to `O=C([O-])c1c(Cl)c(Cl)c(Cl)c(Cl)c1-c1c2c(Br)cc(=O)c(Br)c-2oc2c(Br)c(O)cc(Br)c12.O=C([O-])c1c(Cl)c(Cl)c(Cl)c(Cl)c1-c1c2c(Br)cc(=O)c(Br)c-2oc2c(Br)c(O)cc(Br)c12.[Na+].[Na+]` [Acid Red 92, disodium salt of 3,4,5,6-tetrachloro-2-(1,4,5,8-tetrabromo-6-hydroxy-3-oxoxanthen-9-yl)benzoic acid], for which, under “25° C.”, the solubility in water result is “greater than 10 g/L”.

As to `O=C([O-])C1=NN(c2ccc(S(=O)(=O)[O-])cc2)C(=O)C1N=Nc1ccc(S(=O)(=O)[O-])cc1.[Na+].[Na+].[Na+]` (centres unmarked) [Acid Yellow 23, trisodium salt of 4,5-dihydro-5-oxo-1-(4-sulfophenyl)-4-((4-sulfophenyl)azo)-1H-pyrazole-3-carboxylic acid], the “solubility in water (in words)” value (water at 25° C.) is “readily soluble”.
